1 compound from PMC6934184, “Selective DNA-PKcs inhibition extends the therapeutic index of localized radiotherapy and chemotherapy” (The Journal of Clinical Investigation, 2019) can be followed below.

In general, inhibition refers to the drop in the measured response relative to a control, in per cent.

For this test, the target named is T1, PRKCQ (PKC theta) (Homo sapiens, UniProt Q04759).
T1 construct: purchased Thermo Fisher Scientific (Life Technologies) SelectScreen
Nature of the test: SelectScreen Z'LYTE. Type of test: biochemical. The method, boiled down: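 NU5455 was profiled across the SelectScreen Broad panel of kinase activity and binding assays. Z'LYTE reactions such as CSF1R ran at apparent Km ATP, while the Adapta CAMK1 assay used ATP listed as 10. Values are given as percent.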

T1 sequence (Q04759 whole entry): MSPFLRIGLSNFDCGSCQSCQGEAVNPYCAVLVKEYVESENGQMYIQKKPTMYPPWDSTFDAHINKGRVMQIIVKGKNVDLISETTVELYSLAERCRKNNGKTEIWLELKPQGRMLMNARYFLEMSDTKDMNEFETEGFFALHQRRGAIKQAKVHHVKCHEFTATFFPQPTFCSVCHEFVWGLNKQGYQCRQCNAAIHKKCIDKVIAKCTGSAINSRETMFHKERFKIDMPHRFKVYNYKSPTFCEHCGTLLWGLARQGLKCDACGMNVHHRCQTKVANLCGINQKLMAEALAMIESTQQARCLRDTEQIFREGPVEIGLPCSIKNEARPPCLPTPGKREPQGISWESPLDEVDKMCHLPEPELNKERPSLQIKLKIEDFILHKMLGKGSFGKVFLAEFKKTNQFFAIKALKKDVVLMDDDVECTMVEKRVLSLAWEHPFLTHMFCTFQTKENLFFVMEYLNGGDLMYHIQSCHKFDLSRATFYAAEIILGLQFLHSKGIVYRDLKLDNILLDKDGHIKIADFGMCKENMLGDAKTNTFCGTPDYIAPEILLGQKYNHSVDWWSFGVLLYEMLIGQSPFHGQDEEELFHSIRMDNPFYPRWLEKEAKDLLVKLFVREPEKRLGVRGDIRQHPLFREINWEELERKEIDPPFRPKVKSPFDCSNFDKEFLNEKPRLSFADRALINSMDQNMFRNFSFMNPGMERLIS

As for `CN(C(=O)CN1CCOCC1)c1ccc2sc3c(-c4cccc5c(=O)cc(N6CC7CCC(C6)O7)oc45)cccc3c2c1` [NU5455], the inhibition at 1 µM was -3.7%.
